Like-named read-outs stand apart in the source and are kept apart here.
What was measured:
CYP3A4 = conditions: human, hepatocytes
[1] = Pharmacokinetic study in mice after intragastric administration; type: in vivo
E. coli PQ37 = assay: microbe, parasite or virus in culture; type: cell-based; conditions: Escherichia coli
rhinovirus B5 = type: cell-based; conditions: HeLa cells, CPE inhibition, 72 h post infection; n/a = not active (max 100 μM)
[2] = system: coxsackievirus B3 97927 I1207K I1092; type: cell-based
coxsackievirus B3 Nancy = type: cell-based; conditions: HeLa cells, CPE inhibition, 48 h post infection; n/a = not active (max 100 μM)
rhinovirus B14 = type: cell-based; conditions: HeLa cells, CPE inhibition, 72 h post infection; n/a = not active (max 100 μM)

## Cc1cc(-c2noc(C(F)(F)F)n2)ccc1OCCCc1cc(C(=O)N(C)C)no1 [10g, 3-(3-Methyl-4-(3-(3-N,N-dimethylcarbamoyl-isoxazol-5-yl)propoxy)phenyl)-5-trifluoromethyl-1,2,4-oxadiazole]
CYP3A4; 1 μM
  induction of CYP3A4 (fold): 1.2 x
  induction of CYP3A4, % of control: 3%
CYP3A4; 10 μM
  induction of CYP3A4 (fold): 1.4 x
  induction of CYP3A4, % of control: 7%
[1]; 100 mg/kg intragastric
  bioavailability: very high bioavailability
[1]; 100 mg/kg single dose intragastric, CL = dose/AUC0-∞
  CL: 0.66 h⁻¹
E. coli PQ37
  zone of inhibition at 10000 µg/mL: 0 mm

## CN(C)C(=O)c1cc(CCCOc2ccc(-c3noc(C(F)(F)F)n3)cc2C(F)(F)F)on1 [10k, 3-(3-Trifluoromethyl-4-(3-(3-N,N-dimethylcarbamoyl-isoxazol-5-yl)propoxy)phenyl)-5-trifluoromethyl-1,2,4-oxadiazole]
E. coli PQ37
  zone of inhibition at 10000 µg/mL: 0 mm

## CN(C)C(=O)c1cc(CCCOc2ccc(-c3noc(C(F)(F)F)n3)cc2[N+](=O)[O-])on1 [10i, 3-(3-Nitro-4-(3-(3-N,N-dimethylcarbamoyl-isoxazol-5-yl)propoxy)phenyl)-5-trifluoromethyl-1,2,4-oxadiazole]
E. coli PQ37
  zone of inhibition at 10000 µg/mL: 0 mm

## CCOC(=O)c1cc(CCCOc2ccc(-c3noc(C(F)(F)F)n3)cc2)on1 [6c, 3-(4-(3-(3-Carbethoxy-isoxazol-5-yl)propoxy)phenyl)-5-trifluoromethyl-1,2,4-oxadiazole]
Rhinovirus B5
  IC50 towards rhinovirus B5: inactive
[2]
  IC50 towards coxsackievirus B3 97927 I1207K I1092: inactive
Coxsackievirus B3 Nancy
  IC50 towards coxsackievirus B3 Nancy: inactive

## Cc1cc(CCCOc2c(C)cc(-c3noc(C(F)(F)F)n3)cc2C)on1 [P, pleconaril, reference compound]
CYP3A4; 1 μM
  induction of CYP3A4, % of control: 13%
CYP3A4; 10 μM
  induction of CYP3A4, % of control: 30%

## COC(=O)c1cc(CCCOc2c(C)cc(-c3noc(C(F)(F)F)n3)cc2C)on1 [6a, 3-(3,5-Dimethyl-4-(3-(3-carbmethoxy-isoxazol-5-yl)propoxy)phenyl)-5-trifluoromethyl-1,2,4-oxadiazole]
Rhinovirus B5
  IC50 towards rhinovirus B5: no activity

## CNC(=O)c1cc(CCCOc2c(C)cc(-c3noc(C(F)(F)F)n3)cc2C)on1 [10b, 3-(3,5-Dimethyl-4-(3-(3-methylcarbamoyl-isoxazol-5-yl)propoxy)phenyl)-5-trifluoromethyl-1,2,4-oxadiazole]
E. coli PQ37
  zone of inhibition at 10000 µg/mL: 0 mm

## CNC(=O)c1cc(CCCOc2ccc(-c3noc(C(F)(F)F)n3)cc2C(F)(F)F)on1 [10m, 3-(3-Trifluoromethyl-4-(3-(3-methylcarbamoyl-isoxazol-5-yl)propoxy)phenyl)-5-trifluoromethyl-1,2,4-oxadiazole]
Rhinovirus B5
  IC50 towards rhinovirus B5: did not totally inhibit
Rhinovirus B14
  IC50 towards rhinovirus B14: did not totally inhibit
[2]
  IC50 towards coxsackievirus B3 97927 I1207K I1092: no activity

## Cc1cc(-c2noc(C(F)(F)F)n2)cc(C)c1OCCCc1cc(C(=O)N(C)C)no1 [10e, 3-(3,5-Dimethyl-4-(3-(3-N,N-dimethylcarbamoyl-isoxazol-5-yl)propoxy)phenyl)-5-trifluoromethyl-1,2,4-oxadiazole]
E. coli PQ37
  zone of inhibition at 10000 µg/mL: 0 mm
